# Patent publication US20240024290A1, “PHARMACEUTICAL COMPOSITIONS COMPRISING CANNABINOID AGONIST” (ARTELO BIOSCIENCES LIMITED, priority 2020, published 2024)
# Values joined by “and” are separate entries in the source; they are usually repeats but may differ in a detail not shown here. Equal values may be shown once.
# Key:
# endocannabinoid system = settings: in vivo; cited from earlier work
# [1] = Solubility study of API in liquid, semi-solid and binary excipients (visual, solvent aliquots, Parts 1 and 2); settings: for Aliquot where API first fully dissolved, Part 2 Study: aliquots 1/2/3/4 = 0.8/0.4/0.25/0.1 % w/v
# Experimental: The aim of this study was to assess the solubility of the N-(2-(tert-butyl)-1-((4,4-difluorocyclohexyl)methyl)-1H-benzimidazol-5-yl)ethanesulfonamide in a number of different excipients.
# The binary semi-solid composition mixtures were manufactured as follows: • I. The semi solids were dispensed then molten overnight at ˜60° C. […] (PEG 6000) • II. PEG 400 was added the next day, as required, (when all the semi-solids were molten) • III. Binary solvent mixture containing PEG 6000 were mixed at ˜80° C. and the remaining binaries were mixed at ˜70° C., until homogenous
# Where required, the semi solids were melted prior to use (overnight). The solubility of the API in the selected solvents was assessed in two parts (Part 1 and Part 2 Studies) as follows: • i. Solvent aliquots were added to pre-dispensed API while mixing using a magnetic flea and stirrer. • ii. The temperature of the solvents was maintained as follows: • a. Single-component liquids: Room temperature (ambient) • b. TPGS and PEG 1500: ˜60° C. • c. PEG 6000 and binary solvent mixtures containing PEG 6000: ˜80° C. • iii. Solvents were mixed for a maximum of 1 hour between each aliquot addition. • iv. The solvents were carefully inspected visually between aliquots. • v. The addition of solvent was stopped when: • a. After Aliquot 2 addition if API fully dissolve—(even if API dissolve after Aliquot 1, Aliquot 2 was added) • b. After adding all the solvent aliquots in Table 28 • vi.
compound,measurement,setting,value
"CCS(=O)(=O)Nc1ccc2c(c1)nc(C(C)(C)C)n2CC1CCC(F)(F)CC1 [Compound I, N-(2-(tert-butyl)-1-((4,4-difluorocyclohexyl)methyl)-1H-benzimidazol-5-yl)ethanesulfonamide]",Appetite stimulation,endocannabinoid system,stimulate appetite in a dose-dependent manner
same,CNS-psychoactive effects,endocannabinoid system,does not cause CNS-psychoactive effects
same,"Aliquot where API first fully dissolved, Part 1 Study","[1]; in 1,2-propane diol, ambient, DND = did not dissolve even after 3 aliquots (0.0125 % w/v)",DND*
same,"Aliquot where API first fully dissolved, Part 1 Study","[1]; in Corn oil, ambient, DND = did not dissolve even after 3 aliquots (0.0125 % w/v)",DND*
same,"Aliquot where API first fully dissolved, Part 2 Study","[1]; in Diethylene glycol monoethyl ether, ambient",2nd
same,"Aliquot where API first fully dissolved, Part 1 Study","[1]; in Diethylene glycol monoethyl ether, ambient, aliquots 1/2/3 = 0.05/0.025/0.0125 % w/v",1st
same,Solubility range (% w/v) Above/Below,"[1]; in Diethylene glycol monoethyl ether, ambient, listed as API",> 0.40% w/v and < 0.80% w/v
same,"Aliquot where API first fully dissolved, Part 1 Study","[1]; in Glycerol, ambient, DND = did not dissolve even after 3 aliquots (0.0125 % w/v)",DND*
same,"Aliquot where API first fully dissolved, Part 1 Study","[1]; in Kolliphor EL, ambient, DND = did not dissolve even after 3 aliquots (0.0125 % w/v)",DND*
same,"Aliquot where API first fully dissolved, Part 1 Study","[1]; in Kolliphor ELP, ambient, DND = did not dissolve even after 3 aliquots (0.0125 % w/v)",DND*
same,"Aliquot where API first fully dissolved, Part 1 Study","[1]; in Labrafil M 2125 CS, ambient, DND = did not dissolve even after 3 aliquots (0.0125 % w/v)",DND*
same,Observation of Part 2 solution on standing,"[1]; in Labrasol ALF, after 4 aliquots (0.1 % w/v), 5 days later at ambient",Precipitate
same,"Aliquot where API first fully dissolved, Part 2 Study","[1]; in Labrasol ALF, ambient",3rd
same,Solubility range (% w/v) Above/Below,"[1]; in Labrasol ALF, ambient, listed as API",> 0.025% w/v and < 0.05% w/v
same,"Aliquot where API first fully dissolved, Part 1 Study","[1]; in Labrasol ALF, ambient, only after stirring overnight, aliquots 1/2/3 = 0.05/0.025/0.0125 % w/v",2nd^#
same,"Aliquot where API first fully dissolved, Part 1 Study","[1]; in Miglyol 812 (Medium-chain Triglycerides), ambient, DND = did not dissolve even after 3 aliquots (0.0125 % w/v)",DND*
same,"Aliquot where API first fully dissolved, Part 2 Study","[1]; in Octanoic acid, ambient",2nd
same,"Aliquot where API first fully dissolved, Part 1 Study","[1]; in Octanoic acid, ambient, aliquots 1/2/3 = 0.05/0.025/0.0125 % w/v",2nd
same,Solubility range (% w/v) Above/Below,"[1]; in Octanoic acid, ambient, listed as API",> 0.40% w/v and < 0.80% w/v
same,"Aliquot where API first fully dissolved, Part 1 Study","[1]; in Oleic acid, ambient, DND = did not dissolve even after 3 aliquots (0.0125 % w/v)",DND*
same,"Aliquot where API first fully dissolved, Part 2 Study","[1]; in PEG 400, ambient",4th
same,"Aliquot where API first fully dissolved, Part 1 Study","[1]; in PEG 400, ambient, aliquots 1/2/3 = 0.05/0.025/0.0125 % w/v",2nd
same,"Aliquot where API first fully dissolved, Part 2 Study",[1]; in PEG400:PEG 1500 (1:1),1st
same,"Aliquot where API first fully dissolved, Part 1 Study","[1]; in PEG400:PEG 1500 (1:1), aliquots 1/2/3 = 0.05/0.025/0.0125 % w/v",1st
same,Solubility range (% w/v) Above/Below,"[1]; in PEG400:PEG 1500 (1:1), upper limit not known",> 0.80% w/v
same,"Aliquot where API first fully dissolved, Part 2 Study",[1]; in PEG400:PEG 1500 (1:9),1st
same,"Aliquot where API first fully dissolved, Part 1 Study","[1]; in PEG400:PEG 1500 (1:9), aliquots 1/2/3 = 0.05/0.025/0.0125 % w/v",1st
same,Solubility range (% w/v) Above/Below,"[1]; in PEG400:PEG 1500 (1:9), upper limit not known",> 0.80% w/v
same,"Aliquot where API first fully dissolved, Part 2 Study",[1]; in PEG400:PEG 1500 (9:1),1st
same,"Aliquot where API first fully dissolved, Part 1 Study","[1]; in PEG400:PEG 1500 (9:1), aliquots 1/2/3 = 0.05/0.025/0.0125 % w/v",1st
same,Solubility range (% w/v) Above/Below,"[1]; in PEG400:PEG 1500 (9:1), upper limit not known",> 0.80% w/v
same,"Aliquot where API first fully dissolved, Part 2 Study","[1]; in PEG1500:PEG6000 (1:1), ~80° C.",1st
same,"Aliquot where API first fully dissolved, Part 1 Study","[1]; in PEG1500:PEG6000 (1:1), ~80° C., aliquots 1/2/3 = 0.05/0.025/0.0125 % w/v",1st
same,Solubility range (% w/v) Above/Below,"[1]; in PEG1500:PEG6000 (1:1), ~80° C., upper limit not known",> 0.80% w/v
same,"Aliquot where API first fully dissolved, Part 2 Study","[1]; in PEG1500:PEG6000 (1:9), ~80° C.",1st
same,"Aliquot where API first fully dissolved, Part 1 Study","[1]; in PEG1500:PEG6000 (1:9), ~80° C., aliquots 1/2/3 = 0.05/0.025/0.0125 % w/v",3rd
same,Solubility range (% w/v) Above/Below,"[1]; in PEG1500:PEG6000 (1:9), ~80° C., upper limit not known",> 0.80% w/v
same,"Aliquot where API first fully dissolved, Part 2 Study","[1]; in PEG1500:PEG6000 (9:1), ~80° C.",1st
same,"Aliquot where API first fully dissolved, Part 1 Study","[1]; in PEG1500:PEG6000 (9:1), ~80° C., aliquots 1/2/3 = 0.05/0.025/0.0125 % w/v",1st
same,Solubility range (% w/v) Above/Below,"[1]; in PEG1500:PEG6000 (9:1), ~80° C., upper limit not known",> 0.80% w/v
same,"Aliquot where API first fully dissolved, Part 2 Study",[1]; in PEG1500:TPGS (1:1),1st
same,"Aliquot where API first fully dissolved, Part 1 Study","[1]; in PEG1500:TPGS (1:1), aliquots 1/2/3 = 0.05/0.025/0.0125 % w/v",1st
same,Solubility range (% w/v) Above/Below,"[1]; in PEG1500:TPGS (1:1), upper limit not known",> 0.80% w/v
